What was measured:
[1] = target: T1, G12C-mutant human KRAS (amino acid residues 1-188) (Homo sapiens, UniProt P01116, G12C); experiment: KRAS Binding Disruption Assay (AlphaScreen; biotinylated KRpep-2d analogue or RAF1-RBD), G12C; settings: geometric mean, read-out: KRAS GMean IC50 (uM) MUTATION: G12C
T1 construct: G12D or G12C-mutant human KRAS (amino acid residues 1-188) with FLAG tag; made in house; host or cells: E. coli
Method in brief: (§1)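 Compounds are titrated against 5-20 nM mutant KRAS and 5-20 nM of either a biotinylated KRpep-2d analogue or RAF1-RBD, incubated 1 h at 25° C. Disruption is detected as reduced Alpha signal after 1 h with donor and acceptor beads at 10 μg/mL.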

[2] = target: T2, G12D-mutant human KRAS (amino acid residues 1-188) (Homo sapiens, UniProt P01116, G12D); experiment: KRAS Binding Disruption Assay (AlphaScreen; biotinylated KRpep-2d analogue or RAF1-RBD), G12D; settings: KRAS G12D; geometric mean; read-out: KRAS GMean IC50 (uM) MUTATION: G12D
T2 construct: G12D or G12C-mutant human KRAS (amino acid residues 1-188) with FLAG tag; made in house; host or cells: E. coli
T2 sequence (P01116 1-188 isoform P01116-2 G12D): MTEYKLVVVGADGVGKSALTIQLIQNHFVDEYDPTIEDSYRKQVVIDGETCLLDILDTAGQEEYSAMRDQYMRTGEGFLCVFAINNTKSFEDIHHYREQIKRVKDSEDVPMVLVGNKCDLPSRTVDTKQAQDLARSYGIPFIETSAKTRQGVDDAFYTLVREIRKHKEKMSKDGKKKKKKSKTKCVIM
Method in brief: as §1

T1 sequence (P01116 1-188 isoform P01116-2 G12C): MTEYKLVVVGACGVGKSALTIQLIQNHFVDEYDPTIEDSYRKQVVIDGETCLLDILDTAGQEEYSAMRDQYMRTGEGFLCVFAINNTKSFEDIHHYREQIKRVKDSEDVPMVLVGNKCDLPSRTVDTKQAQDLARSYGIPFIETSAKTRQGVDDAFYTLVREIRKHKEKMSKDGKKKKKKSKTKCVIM

Structure (SMILES)	IC50 [1] [µM]	IC50 [2] [µM]
NC(=O)COc1nc(N2C[C@H]3CC[C@@H](C2)N3)c2ccc(-c3cc(O)cc4ccccc34)c(F)c2n1 [P-0732, 2-((4-((1R,5S)-3,8-diazabicyclo[3.2.1]octan-3-yl)-8-fluoro-7-(3-hydroxynaphthalen-1-yl)quinazolin-2-yl)oxy)acetamide]	10 to 100	0.0001 to 10
Oc1cc(-c2ccc3c(N4C[C@H]5CC[C@@H](C4)N5)nc(OCCn4ccnc4)nc3c2F)c2ccccc2c1 [P-0803, 4-(2-(2-(1H-imidazol-1-yl)ethoxy)-4-((1R,5S)-3,8-diazabicyclo[3.2.1]octan-3-yl)-8-fluoroquinazolin-7-yl)naphthalen-2-ol]	0.0001 to 10	0.0001 to 10
Cc1ncoc1COc1nc(N2C[C@H]3CC[C@@H](C2)N3)c2ccc(-c3cc(O)cc4ccccc34)c(F)c2n1 [P-0715, 4-(4-((1R,5S)-3,8-diazabicyclo[3.2.1]octan-3-yl)-8-fluoro-2-((4-methyloxazol-5-yl)methoxy)quinazolin-7-yl)naphthalen-2-ol]	10 to 100	10 to 100
CN1CCCC12CN(c1nc(N3C[C@H]4CC[C@@H](C3)N4)c3ccc(-c4cc(O)cc5ccccc45)c(F)c3n1)C2 [P-0641, 4-(4-((1R,5S)-3,8-diazabicyclo[3.2.1]octan-3-yl)-8-fluoro-2-(5-methyl-2,5-diazaspiro[3.4]octan-2-yl)quinazolin-7-yl)naphthalen-2-ol]	10 to 100	0.0001 to 10
Fc1ccc2[nH]cc(-c3ccc4c(N5C[C@H]6CC[C@@H](C5)N6)nc(OCC56CCCN5CCC6)nc4c3F)c2c1F [P-0763, 4-((1R,5S)-3,8-diazabicyclo[3.2.1]octan-3-yl)-7-(4,5-difluoro-1H-indol-3-yl)-8-fluoro-2-((tetrahydro-1H-pyrrolizin-7a(5H)-yl)methoxy)quinazoline]	0.0001 to 10	0.0001 to 10
Oc1cc(-c2ccc3c(N4C[C@H]5CC[C@@H](C4)N5)nc(N4CCC(O)C4)nc3c2F)c2ccccc2c1 (stereo partly drawn) [P-0791, 1-(4-((1R,5S)-3,8-diazabicyclo[3.2.1]octan-3-yl)-8-fluoro-7-(3-hydroxynaphthalen-1-yl)quinazolin-2-yl)pyrrolidin-3-ol]	100 to 1000	0.0001 to 10
CN(C)C1(CNc2nc(N3C[C@H]4CC[C@@H](C3)N4)c3ccc(-c4cc(O)cc5ccccc45)c(F)c3n2)CCOCC1 [P-0639, 4-(4-((1R,5S)-3,8-diazabicyclo[3.2.1]octan-3-yl)-2-(((4-(dimethylamino)tetrahydro-2H-pyran-4-yl)methyl)amino)-8-fluoroquinazolin-7-yl)naphthalen-2-ol]	10 to 100	0.0001 to 10
CC(C)(COc1nc(N2C[C@H]3CC[C@@H](C2)N3)c2ccc(-c3cc(O)cc4ccccc34)c(F)c2n1)NC(=O)OCc1ccccc1 [P-0735, benzyl (1-((4-((1R,5S)-3,8-diazabicyclo[3.2.1]octan-3-yl)-8-fluoro-7-(3-hydroxynaphthalen-1-yl)quinazolin-2-yl)oxy)-2-methylpropan-2-yl)carbamate]	100 to 1000	0.0001 to 10
O=C(O)CCOc1nc(N2C[C@H]3CC[C@@H](C2)N3)c2ccc(-c3cc(O)cc4ccccc34)c(F)c2n1 [P-0743, 3-((4-((1R,5S)-3,8-diazabicyclo[3.2.1]octan-3-yl)-8-fluoro-7-(3-hydroxynaphthalen-1-yl)quinazolin-2-yl)oxy)propanoic acid]	10 to 100	0.0001 to 10
Oc1cc(-c2ccc3c(N4C[C@H]5CC[C@@H](C4)N5)nc(OC4CCC(O)CC4)nc3c2F)c2ccccc2c1 (stereo partly drawn) [P-0787, 4-(4-((1R,5S)-3,8-diazabicyclo[3.2.1]octan-3-yl)-8-fluoro-2-((4-hydroxycyclohexyl)oxy)quinazolin-7-yl)naphthalen-2-ol]	10 to 100	0.0001 to 10
Oc1cc(-c2ccc3c(N4C[C@H]5CC[C@@H](C4)N5)nc(N4CC(O)(C5CC5)C4)nc3c2F)c2ccccc2c1 [P-0636, 1-(4-((1R,5S)-3,8-diazabicyclo[3.2.1]octan-3-yl)-8-fluoro-7-(3-hydroxynaphthalen-1-yl)quinazolin-2-yl)-3-cyclopropylazetidin-3-ol]	0.0001 to 10	0.0001 to 10
Cc1ccc2[nH]cc(-c3c(F)cc4c(N5C[C@H]6CC[C@@H](C5)N6)nc(OC[C@@H]5CCCN5C)nc4c3F)c2c1 [P-0758, 4-((1R,5S)-3,8-diazabicyclo[3.2.1]octan-3-yl)-6,8-difluoro-7-(5-methyl-1H-indol-3-yl)-2-(((S)-1-methylpyrrolidin-2-yl)methoxy)quinazoline]	100 to 1000	0.0001 to 10
CS(=O)(=O)NCCc1nc(N2C[C@H]3CC[C@@H](C2)N3)c2ccc(-c3cc(O)cc4ccccc34)c(F)c2n1 [P-0771, N-(2-(4-((1R,5S)-3,8-diazabicyclo[3.2.1]octan-3-yl)-8-fluoro-7-(3-hydroxynaphthalen-1-yl)quinazolin-2-yl)ethyl)methanesulfonamide]	10 to 100	0.0001 to 10
CN1CCC[C@H]1COc1nc(N2C[C@H]3CC[C@@H](C2)N3)c2cc(F)c(-c3c[nH]c4cc(C#N)ccc34)c(F)c2n1 [P-0798, 3-(4-((1R,5S)-3,8-diazabicyclo[3.2.1]octan-3-yl)-6,8-difluoro-2-(((S)-1-methylpyrrolidin-2-yl)methoxy)quinazolin-7-yl)-1H-indole-6-carbonitrile]	100 to 1000	10 to 100
CN1CCC[C@H]1COc1nc(N2C[C@H]3CC[C@@H](C2)N3)c2cc(F)c(-c3n[nH]c4ccccc34)c(F)c2n1 [P-0725, 4-((1R,5S)-3,8-diazabicyclo[3.2.1]octan-3-yl)-6,8-difluoro-7-(1H-indazol-3-yl)-2-(((S)-1-methylpyrrolidin-2-yl)methoxy)quinazoline]	100 to 1000	10 to 100
Oc1cc(-c2ccc3c(N4C[C@H]5CC[C@@H](C4)N5)nc(CCNc4ncccn4)nc3c2F)c2ccccc2c1 [P-0769, 4-(4-((1R,5S)-3,8-diazabicyclo[3.2.1]octan-3-yl)-8-fluoro-2-(2-(pyrimidin-2-ylamino)ethyl)quinazolin-7-yl)naphthalen-2-ol]	10 to 100	0.0001 to 10
O=C1CCCN1CCOc1nc(N2C[C@H]3CC[C@@H](C2)N3)c2ccc(-c3cc(O)cc4ccccc34)c(F)c2n1 [P-0693, 1-(2-((4-((1R,5S)-3,8-diazabicyclo[3.2.1]octan-3-yl)-8-fluoro-7-(3-hydroxynaphthalen-1-yl)quinazolin-2-yl)oxy)ethyl)pyrrolidin-2-one]	10 to 100	0.0001 to 10
Oc1cc(-c2ccc3c(N4C[C@H]5CC[C@@H](C4)N5)nc(OCC4CCCCO4)nc3c2F)c2ccccc2c1 (stereo partly drawn) [P-0775, 4-(4-((1R,5S)-3,8-diazabicyclo[3.2.1]octan-3-yl)-8-fluoro-2-((tetrahydro-2H-pyran-2-yl)methoxy)quinazolin-7-yl)naphthalen-2-ol]	10 to 100	0.0001 to 10
Cc1cccc2[nH]nc(-c3ccc4c(N5C[C@H]6CC[C@@H](C5)N6)nc(OC[C@@H]5CCCN5C)nc4c3F)c12 [P-0712, 4-((1R,5S)-3,8-diazabicyclo[3.2.1]octan-3-yl)-8-fluoro-7-(4-methyl-1H-indazol-3-yl)-2-(((S)-1-methylpyrrolidin-2-yl)methoxy)quinazoline]	10 to 100	10 to 100

— patent US20230081426A1, “COMPOUNDS AND METHODS FOR KRAS MODULATION AND INDICATIONS THEREFOR” (Plexxikon Inc., priority 2020, published 2023)
